Reference: publication PMC12071533, “Acridine-Based Chalcone 1C and ABC Transporters” (International Journal of Molecular Sciences, 2025)

Target: T1, ABCB1 (multidrug resistance protein 1, P-glycoprotein) (Homo sapiens, UniProt P08183)
T1 construct: recombinant human ABCB1 in MDR1-Sf9 membranes
Assay: vanadate-sensitive ATPase assay (Pi release) in MDR1-Sf9 membranes; inhibition of verapamil-stimulated activity, biphasic in the activation test
Format: biochemical
Settings: read-out: EC50 (the source's name)

IC50: 5.53 ± 0.97 µM
SMILES: COc1cccc(OC)c1C(=O)/C=C/c1c2ccccc2nc2ccccc12 [1C, (2E)-3-(acridin-9-yl)-1-(2,6-dimethoxyphenyl)prop-2-en-1-one]
